Experimental data published in patent publication US11407736B2 (priority 2019, dated 2022).
Structures can show the parent of a compound that is named as a salt. Where two headings read alike, the source gives them in different places.

What was measured:
RIPK1 = RIPK1 (Homo sapiens (Human), UniProt Q13546); experiment: RIPK1 ADP-Glo biochemical kinase assay
Experimental: The final reaction volume was 5.0ul.
Adding 5 μl of ADP-Glo™ terminated the reaction.

L929 cells = experiment: L929 cell necroptosis assay (TNFa + zVAD, CellTiter-Glo); format: cell-based, murine; conditions: Mus musculus
Method in brief: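 Necroptosis was read as CellTiter-Glo luminescence 18 hours after TNFa stimulation at 37° C, 5% CO2. Prior to that, L929 cells (10K/well, plated 18 h) received fresh medium with 40 uM zVAD-fmk plus 4-fold serially diluted compound.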

U937 cells = experiment: U937 cell necroptosis assay (TNFa + zVAD, CellTiter-Glo); format: cell-based, human; conditions: Homo sapiens
Method in brief: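 Necroptosis was induced with TNFa at 2 ng/mL final for 18 h at 37 °C, following 1 h compound pre-incubation in the presence of zVAD-fmk (60 uM for U937 plating medium, 40 uM for L929 medium). Luminescent CellTiter-Glo signal gave relative cell survival.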

[1] = read-out: RIPK1 ADP-Glo Kinase (IC50)
[2] = L929, L929 cells, TNFa + zVAD, read-out: L929-CTG-recovery, L929, TNFa + zVAD (IC50)
[3] = U-937, U937 cells, TNFa + zVAD, read-out: U937 Zvad TNF CTG Recovery, U937, TNFa + zVAD (IC50)
[4] = L929 cells, TNFa + zVAD, read-out: L929-CTG-recovery, L929, TNFa + zVAD (IC50)
[5] = L929, read-out: L929-CTG-recovery, L929, TNFa + zVAD (IC50), L929 cells, TNFa + zVAD
[6] = U-937, read-out: U937 Zvad TNF CTG Recovery, U937, TNFa + zVAD (IC50), U937 cells, TNFa + zVAD

Chain of RIPK1 (Q13546 whole entry, species assumed): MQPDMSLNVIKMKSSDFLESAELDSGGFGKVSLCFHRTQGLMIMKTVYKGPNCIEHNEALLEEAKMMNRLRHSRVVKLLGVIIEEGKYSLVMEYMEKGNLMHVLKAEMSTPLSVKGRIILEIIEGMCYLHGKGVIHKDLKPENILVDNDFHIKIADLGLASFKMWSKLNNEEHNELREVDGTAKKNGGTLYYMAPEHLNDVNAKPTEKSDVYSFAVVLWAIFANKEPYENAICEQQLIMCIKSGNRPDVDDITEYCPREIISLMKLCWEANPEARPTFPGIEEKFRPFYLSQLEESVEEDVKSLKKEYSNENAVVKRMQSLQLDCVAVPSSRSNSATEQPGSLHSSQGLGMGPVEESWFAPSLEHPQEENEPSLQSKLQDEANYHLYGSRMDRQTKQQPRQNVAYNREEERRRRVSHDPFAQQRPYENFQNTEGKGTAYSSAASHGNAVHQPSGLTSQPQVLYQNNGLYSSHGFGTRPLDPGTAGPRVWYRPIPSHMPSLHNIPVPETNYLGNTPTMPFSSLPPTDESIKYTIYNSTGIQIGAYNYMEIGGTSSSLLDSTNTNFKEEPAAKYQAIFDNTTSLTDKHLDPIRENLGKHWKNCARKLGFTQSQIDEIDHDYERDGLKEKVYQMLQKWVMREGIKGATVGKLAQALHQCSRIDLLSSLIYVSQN

SMILES: CN1C(=O)[C@@H](NC(=O)n2cc(Cc3ccc(F)cc3)cn2)COc2ccc(C#CC(C)(C)N)cc21 [Compound I-226, (S)—N-(7-(3-amino-3-methylbut-1-yn-1-yl)-5-methyl-4-oxo-2,3,4,5-tetrahydrobenzo[b][1,4]oxazepin-3-yl)-4-(4-fluorobenzyl)-1H-pyrazole-1-carboxamide]
- IC50 (RIPK1; [1]): 33 nM
- IC50 (L929 cells; [2]): 1770 nM
- IC50 (U937 cells; [3]): 17 nM

SMILES: CN1C(=O)[C@@H](NC(=O)c2nnc(C3(c4ccccc4)CC3)o2)COc2ccc(N3CC4(CCOCC4)C3)cc21 [Compound I-235, (S)—N-(5-methyl-4-oxo-7-(7-oxa-2-azaspiro[3.5]nonan-2-yl)-2,3,4,5-tetrahydrobenzo[b][1,4]oxazepin-3-yl)-5-(1-phenylcyclopropyl)-1,3,4-oxadiazole-2-carboxamide]
- IC50 (RIPK1; [1]): 62.1 nM
- IC50 (L929 cells; [4]): 1070 nM
- IC50 (U937 cells; [3]): 13.2 nM

SMILES: CN1C(=O)[C@@H](NC(=O)c2nnc(Cc3ccccc3)o2)COc2ccc(N3CC4(CCOCC4)C3)cc21 [Compound I-236, (S)-5-benzyl-N-(5-methyl-4-oxo-7-(7-oxa-2-azaspiro[3.5]nonan-2-yl)-2,3,4,5-tetrahydrobenzo[b][1,4]oxazepin-3-yl)-1,3,4-oxadiazole-2-carboxamide]
- IC50 (RIPK1; [1]): 55.9 nM
- IC50 (L929 cells; [5]): 258 nM
- IC50 (U937 cells; [6]): 6.6 nM

SMILES: CN1C(=O)[C@@H](NC(=O)n2cc(Cc3ccc(F)cc3F)cn2)COc2ccc(Br)cc21 [Compound I-237, (S)—N-(7-Bromo-5-methyl-4-oxo-2,3,4,5-tetrahydrobenzo[b][1,4]oxazepin-3-yl)-4-(2,4-difluorobenzyl)-1H-pyrazole-1-carboxamide]
- IC50 (RIPK1): 43.1 nM
- IC50 (L929 cells; [2]): 15500 nM
- IC50 (U937 cells; [3]): 135 nM

SMILES: CN1C(=O)[C@@H](NC(=O)n2cc(Cc3ccc(F)cc3F)cn2)COc2ccc(C#CC(C)(C)CNC(=O)OC(C)(C)C)cc21 [Compound I-240, Tert-butyl (S)-(4-(3-(4-(2,4-difluorobenzyl)-1H-pyrazole-1-carboxamido)-5-methyl-4-oxo-2,3,4,5-tetrahydrobenzo[b][1,4]oxazepin-7-yl)-2,2-dimethylbut-3-yn-1-yl)carbamate]
- IC50 (RIPK1): 265 nM
- IC50 (L929 cells; [2]): 944 nM
- IC50 (U937 cells; [3]): 15.1 nM

SMILES: CN1C(=O)[C@@H](NC(=O)n2cc(Cc3ccc(F)cc3F)cn2)COc2ccc(C#CC(C)(C)CN)cc21 [Compound I-241, (S)—N-(7-(4-Amino-3,3-dimethylbut-1-yn-1-yl)-5-methyl-4-oxo-2,3,4,5-tetrahydrobenzo[b][1,4]oxazepin-3-yl)-4-(2,4-difluorobenzyl)-1H-pyrazole-1-carboxamide hydrochloride]
- IC50 (RIPK1): 50.1 nM
- IC50 (L929 cells; [2]): 2100 nM
- IC50 (U937 cells; [3]): 62.6 nM

SMILES: CN1C(=O)[C@@H](NC(=O)c2cc(Oc3ccccc3)ccn2)COc2cc(C#Cc3ccccn3)ccc21 [II-16, (S)—N-(5-methyl-4-oxo-8-(pyridin-2-ylethynyl)-2,3,4,5-tetrahydrobenzo[b][1,4]oxazepin-3-yl)-4-phenoxypicolinamide]
- IC50 (RIPK1; [1]): 45.2 nM
- IC50 (L929 cells; [2]): 2120 nM
- IC50 (U937 cells; [3]): 3.4 nM

SMILES: CN1C(=O)[C@@H](NC(=O)c2cc(Oc3ccc(C#N)cc3)ccn2)COc2ccc(C#CC(C)(C)O)cc21 [II-18, (S)-4-(4-cyanophenoxy)-N-(7-(3-hydroxy-3-methylbut-1-yn-1-yl)-5-methyl-4-oxo-2,3,4,5-tetrahydrobenzo[b][1,4]oxazepin-3-yl)picolinamide]
- IC50 (RIPK1; [1]): 51.8 nM
- IC50 (L929 cells; [2]): 6640 nM
- IC50 (U937 cells; [3]): 286 nM

SMILES: CN1C(=O)[C@@H](NC(=O)c2cc(Oc3ccc(C#N)cc3)ccn2)COc2ccc(C#CC3(O)COC3)cc21 [II-19, (S)-4-(4-cyanophenoxy)-N-(7-((3-hydroxyoxetan-3-yl)ethynyl)-5-methyl-4-oxo-2,3,4,5-tetrahydrobenzo[b][1,4]oxazepin-3-yl)picolinamide]
- IC50 (RIPK1; [1]): 34.9 nM
- IC50 (L929 cells; [5]): 2890 nM
- IC50 (U937 cells; [6]): 55.5 nM

SMILES: CN1C(=O)[C@@H](NC(=O)c2cc(-c3ccccc3)ccn2)COc2ccc(C#CC(C)(C)O)cc21 [II-20, (S)—N-(7-(3-hydroxy-3-methylbut-1-yn-1-yl)-5-methyl-4-oxo-2,3,4,5-tetrahydrobenzo[b][1,4]oxazepin-3-yl)-4-phenylpicolinamide]
- IC50 (RIPK1; [1]): 40.3 nM
- IC50 (L929 cells; [5]): 14600 nM
- IC50 (U937 cells; [6]): 31.6 nM

SMILES: CN1C(=O)[C@@H](NC(=O)c2cc(Oc3cccc(C#N)c3)ccn2)COc2cc(C#CC(C)(C)O)ccc21 [II-21, (S)-4-(3-cyanophenoxy)-N-(8-(3-hydroxy-3-methylbut-1-yn-1-yl)-5-methyl-4-oxo-2,3,4,5-tetrahydrobenzo[b][1,4]oxazepin-3-yl)picolinamide]
- IC50 (RIPK1; [1]): 40.9 nM
- IC50 (L929 cells; [2]): 3440 nM
- IC50 (U937 cells; [3]): 14.3 nM

SMILES: COc1ccc(-c2ccnc(C(=O)N[C@H]3COc4ccc(C#CC(C)(C)O)cc4N(C)C3=O)c2)cc1 [II-22, (S)—N-(7-(3-hydroxy-3-methylbut-1-yn-1-yl)-5-methyl-4-oxo-2,3,4,5-tetrahydrobenzo[b][1,4]oxazepin-3-yl)-4-(4-methoxyphenyl)picolinamide]
- IC50 (RIPK1; [1]): 310 nM
- IC50 (L929 cells; [5]): 56000 nM
- IC50 (U937 cells; [6]): 580 nM

SMILES: CN1C(=O)[C@@H](NC(=O)c2cc(Oc3ccccc3)ccn2)COc2ccc(CCC(N)=O)cc21 [II-24, (S)—N-(7-(3-amino-3-oxopropyl)-5-methyl-4-oxo-2,3,4,5-tetrahydrobenzo[b][1,4]oxazepin-3-yl)-4-phenoxypicolinamide]
- IC50 (RIPK1; [1]): 56.3 nM
- IC50 (L929 cells; [5]): 7910 nM
- IC50 (U937 cells; [6]): 16.6 nM

SMILES: CN1C(=O)[C@@H](NC(=O)c2cc(Oc3ccccc3)ccn2)COc2ccc(C#CC(C)(C)C)cc21 [II-25, (S)—N-(7-(3,3-dimethylbut-1-yn-1-yl)-5-methyl-4-oxo-2,3,4,5-tetrahydrobenzo[b][1,4]oxazepin-3-yl)-4-phenoxypicolinamide]
- IC50 (RIPK1; [1]): 226 nM
- IC50 (L929 cells; [5]): 202 nM
- IC50 (U937 cells; [6]): 2.4 nM

SMILES: CN1CCC2(CC1)CCN(c1ccc3c(c1)N(C)C(=O)[C@@H](NC(=O)c1cc(Oc4ccccc4)ccn1)CO3)CC2 [II-27, (S)—N-(5-Methyl-7-(9-methyl-3,9-diazaspiro[5.5]undecan-3-yl)-4-oxo-2,3,4,5-tetrahydrobenzo[b][1,4]oxazepin-3-yl)-4-phenoxypicolinamide]
- IC50 (RIPK1; [1]): 27.9 nM
- IC50 (L929 cells; [4]): 10400 nM
- IC50 (U937 cells; [3]): 63.3 nM

SMILES: CN1C(=O)[C@@H](NC(=O)c2cc(Oc3ccccc3)ccn2)COc2ccc(N3CC4(CCOCC4)C3)cc21 [II-28, (S)—N-(5-methyl-4-oxo-7-(7-oxa-2-azaspiro[3.5]nonan-2-yl)-2,3,4,5-tetrahydrobenzo[b][1,4]oxazepin-3-yl)-4-phenoxypicolinamide]
- IC50 (RIPK1; [1]): 16.1 nM
- IC50 (L929 cells; [4]): 2220 nM
- IC50 (U937 cells; [3]): 8.3 nM

SMILES: CN1C(=O)[C@@H](NC(=O)c2cc(Oc3ccccc3)ccn2)COc2ccc(N3CCC4(CCOCC4)C3)cc21 [II-31, (S)—N-(5-methyl-4-oxo-7-(8-oxa-2-azaspiro[4.5]decan-2-yl)-2,3,4,5-tetrahydrobenzo[b][1,4]oxazepin-3-yl)-4-phenoxypicolinamide]
- IC50 (RIPK1; [1]): 36.3 nM
- IC50 (L929 cells; [4]): 654 nM
- IC50 (U937 cells; [3]): 8 nM

SMILES: COC(C)(C)C#Cc1ccc2c(c1)N(C)C(=O)[C@@H](NC(=O)c1cc(Oc3ccccc3)ccn1)CO2 [II-32, (S)—N-(7-(3-methoxy-3-methylbut-1-yn-1-yl)-5-methyl-4-oxo-2,3,4,5-tetrahydrobenzo[b][1,4]oxazepin-3-yl)-4-phenoxypicolinamide]
- IC50 (RIPK1; [1]): 50.5 nM
- IC50 (L929 cells; [5]): 57.4 nM
- IC50 (U937 cells; [6]): 2.1 nM

SMILES: CN1C(=O)[C@@H](NC(=O)c2cc(Oc3ccccc3)ccn2)COc2ccc(C#Cc3cccc(C#N)n3)cc21 [II-33, (S)—N-(7-((6-cyanopyridin-2-yl)ethynyl)-5-methyl-4-oxo-2,3,4,5-tetrahydrobenzo[b][1,4]oxazepin-3-yl)-4-phenoxypicolinamide]
- IC50 (RIPK1; [1]): 101 nM
- IC50 (L929 cells; [2]): 33.1 nM
- IC50 (U937 cells; [3]): 1.8 nM

SMILES: CN1C(=O)[C@@H](NC(=O)c2cc(Oc3ccccc3)ccn2)COc2ccc(C#CCO)cc21 [II-35, (S)—N-(7-(3-hydroxyprop-1-yn-1-yl)-5-methyl-4-oxo-2,3,4,5-tetrahydrobenzo[b][1,4]oxazepin-3-yl)-4-phenoxypicolinamide]
- IC50 (RIPK1; [1]): 27.5 nM
- IC50 (L929 cells; [2]): 164 nM
- IC50 (U937 cells; [3]): 0.7 nM

SMILES: CN(C)CC#Cc1ccc2c(c1)N(C)C(=O)[C@@H](NC(=O)c1cc(Oc3ccccc3)ccn1)CO2 [II-36, (S)—N-(7-(3-(dimethylamino)prop-1-yn-1-yl)-5-methyl-4-oxo-2,3,4,5-tetrahydrobenzo[b][1,4]oxazepin-3-yl)-4-phenoxypicolinamide]
- IC50 (RIPK1; [1]): 38.9 nM
- IC50 (L929 cells; [2]): 132 nM
- IC50 (U937 cells; [3]): 1.6 nM

SMILES: CN1C(=O)[C@@H](NC(=O)c2cc(Oc3ccccc3)ccn2)COc2ccc(C#CC3CCCN3)cc21 (stereo partly drawn) [II-39, N-((3S)-5-methyl-4-oxo-7-(pyrrolidin-2-ylethynyl)-2,3,4,5-tetrahydrobenzo[b][1,4]oxazepin-3-yl)-4-phenoxypicolinamide]
- IC50 (RIPK1; [1]): 23 nM
- IC50 (L929 cells; [2]): 1350 nM
- IC50 (U937 cells; [3]): 1.8 nM
